This is an account of results in patent US10688093B2, “Methods, compositions, and uses of novel Fyn kinase inhibitors” (priority 2015, dated 2020).

What is called IC50 is the concentration at which inhibition is half-maximal.

The structures appear in SMILES notation.

In one test the target is full-length recombinant human FYN A (Homo sapiens (Human), UniProt P06241). The experiment in a line: ADP-Glo Kinase Assay of FYN kinase inhibition. The format is biochemical. The following applies: primary screen, initial compounds. An outline of the steps: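 ADP-Glo read-out of peptide phosphorylation after 90 min RT with 12.5 pmol ATP and 100 pg 12-mer substrate. Enzyme was N-GST full-length human FYN A from insect cells, 3 pg, pre-incubated 30 min with compound, 10 points from 10 μM top, 3-fold steps; IC50 from curve.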
full-length recombinant human FYN A, sequence (P06241 whole entry): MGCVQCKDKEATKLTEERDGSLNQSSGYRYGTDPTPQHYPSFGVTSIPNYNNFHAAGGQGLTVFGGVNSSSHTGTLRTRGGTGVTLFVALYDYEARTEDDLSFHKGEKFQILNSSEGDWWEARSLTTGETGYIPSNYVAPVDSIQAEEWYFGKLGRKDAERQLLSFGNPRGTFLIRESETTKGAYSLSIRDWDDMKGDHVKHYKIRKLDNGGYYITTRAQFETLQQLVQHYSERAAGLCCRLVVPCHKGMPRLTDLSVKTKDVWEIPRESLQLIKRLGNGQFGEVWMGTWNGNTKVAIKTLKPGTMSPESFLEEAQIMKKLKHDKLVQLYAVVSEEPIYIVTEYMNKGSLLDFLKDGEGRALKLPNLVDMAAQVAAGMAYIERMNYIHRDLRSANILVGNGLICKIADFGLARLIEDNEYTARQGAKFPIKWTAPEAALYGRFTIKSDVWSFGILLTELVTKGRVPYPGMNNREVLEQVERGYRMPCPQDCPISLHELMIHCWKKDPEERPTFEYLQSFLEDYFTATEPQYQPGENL
(In general: ADP-Glo turns the ADP formed in a reaction into a luminescent signal.)
Regarding `CC(=O)Nc1cccc(-c2cn3c(-c4ccsc4)cnc3cn2)c1` [Compound 201, N-[3-[3-(3-thienyl)imidazo [1,2-a]pyrazin-6-yl]phenyl] acetamide], the IC50 worked out at 2.33 µM.

For `COc1ccc(-c2cnc3sc(NCc4ccncc4)nn23)cn1` [Compound 287, 5-(6-methoxy-3-pyridyl)-N-(4-pyridylmethyl) imidazo[2,1-b] [1,3,4]thiadiazol-2-amine], the IC50 was determined as 2.59 µM.

For `OCCCNc1ccc2ncc(-c3ccc4[nH]ccc4c3)n2n1` [229_0248_0204, 3-[[3-(1H-indol-5-yl)imidazo[1,2-b]pyridazin-6-yl]amino] propan-1-ol], the IC50 stood at 2.72 µM.

Regarding `COc1cc(OC)cc(-c2cc3c(N4CCOCC4)nccc3[nH]2)c1` [Compound 596, 4-[2-(3,5-dimethoxy-phenyl)-1H-pyrrolo[3,2-c]pyridin-4-yl]morpholine], the half-maximal inhibitory concentration (IC50) is 30 µM.

With `CN1CCN(c2ccc(-c3cn4c(-c5ccc6c(c5)OCO6)cnc4cn3)cc2)CC1` [Compound 233, 3-(1,3-benzodioxol-5-yl)-6-[4-(4-methylpiperazin-1-yl)phenyl] imidazo[1,2-a]pyrazine], the IC50 was found to be 7.93 µM.

With `COc1cccc(-c2ccnc3[nH]nc(C4CCNCC4)c23)c1` [Compound 520, 4-(3-methoxyphenyl)-3-(4-piperidyl)-1H-pyrazolo[3,4-b]pyridine], the IC50 is 17.6 µM.

On to `COc1cc(-c2cc(-c3cccc(NS(C)(=O)=O)c3)cnc2N)cc(OC)c1OC` [382_0087_6488, N-[3-[6-amino-5-(3,4,5-trimethoxy-phenyl)-3-pyridyl]phenyl] methane-sulfonamide], for which the IC50 was 0.525 µM.

With `CC(=O)c1cccc(-c2cnc3ccc(-c4ccc(F)cc4)nn23)c1` [Compound 444, 1-[3-[6-(4-fluorophenyl)imidazo[1,2-b]pyridazin-3-yl]phenyl] ethanone], the IC50 worked out at 4.81 µM.

On to `CCCNc1ccc2ncc(-c3cccc(NC(C)=O)c3)n2n1` [229_0226_0081, N-[3-[6-(propylamino)imidazo[1,2-b]pyridazin-3-yl]phenyl] acetamide], for which the IC50 was 0.629 µM.

Take `COc1cc(-c2cc(-c3ccc(N4CCN(C)CC4)cc3)cnc2N)cc(OC)c1OC` [382_0087_0218, 5-[4-(4-methylpiperazin-1-yl)phenyl]-3-(3,4,5-trimethoxyphenyl)pyridin-2-amine]: the IC50 turned out to be 0.322 µM.

In the case of `CCC(CO)Nc1ccc2ncc(-c3ccc(OC)nc3)n2n1` (stereo not shown) [229_0153_0311, 2-[[3-(6-methoxy-3-pyridyl)imidazo [1,2-b]pyridazin-6-yl]amino] butan-1-ol], the 50% inhibitory concentration (IC50) was 2.37 µM.

For the compound `CC(=O)c1cccc(-c2cnc3ccc(-c4cnn(C)c4)nn23)c1` [Compound 358, 1-[3-[6-(1-methylpyrazol-4-yl)imidazo[1,2-3]pyridazin-3-yl]phenyl] ethanone], the IC50 was found to be 0.373 µM.

Take `COc1cccc(-c2ccc3ncc(-c4cccc(CO)c4)n3n2)c1` [Compound 303, [3-[6-(3-methoxyphenyl)imidazo[1,2-b]pyridazin-3-yl]phenyl] methanol]: the concentration for half-maximal inhibition (IC50) came to 2.74 µM.

Take `Cn1cc(-c2cn3c(-c4ccc(O)cc4)cnc3cn2)cn1` [Compound 215, 4-[6-(1-methylpyrazol-4-yl)imidazo[1,2-a]pyrazin-3-yl]phenol]: the IC50 came out at 1.59 µM.

For `CCCN1CCc2nc(Nc3cc(OC)c(OC)c(OC)c3)ncc2C1` [582_9377_5632, 6-propyl-N-(3,4,5-trimethoxy-phenyl)-7,8-dihydro-5H-pyrido[4,3-d]pyrimidin-2-amine], the IC50 was determined as 14.7 µM.

As to `Nc1ccc(-c2cnc3ccc(NCc4cccc(Cl)c4)nn23)cc1` [229_0223_0333, 3-(4-aminophenyl)-N-[(3-chlorophenyl)methyl]imidazo [1,2-b]pyridazin-6-amine], the 50% inhibitory concentration (IC50) worked out at 3.41 µM.

Regarding `CN1CCN(c2ccc(Nc3cc4c(cn3)cc(-c3cccc(F)c3)n4C)cc2)CC1` [Compound 592, 2-(3-fluorophenyl)-1-methyl-N-[4-(4-methylpiperazin-1-yl)phenyl] pyrrolo[3,2-c]pyridin-6-amine], the half-inhibitory concentration (IC50) turned out to be 12.9 µM.

Take `c1cncc(-c2cnc3ccc(-c4ccoc4)nn23)c1` [Compound 410, 6-(3-furyl)-3-(3-pyridyl)imidazo [1,2-b]pyridazine]: the IC50 amounted to 2.35 µM.

As for `c1ccc(CNc2ccc3ncc(-c4ccc5c(c4)OCO5)n3n2)nc1` [229_4007_0068, 3-(1,3-benzodioxol-5-yl)-N-(2-pyridylmethyl) imidazo[1,2-b]pyridazin-6-amine], the IC50 amounted to 0.797 µM.

Regarding `COc1cc(-c2cnc3ccc(-c4cccc(OC(F)(F)F)c4)nn23)ccc1O` [Compound 462, 2-methoxy-4-[6-[3-(trifluoro-methoxy)phenyl]imidazo[1,2-b]pyridazin-3-yl]phenol], the IC50 was determined as 0.835 µM.

Take `COc1ccccc1-c1cc(NC(C)=O)c2ncc(-c3cccc(C(C)=O)c3)n2c1` [Compound 565, N-[3-(3-acetylphenyl)-6-[2-methoxy-phenyl)imidazo [1,2-a]pyridin-8-yl]acetamide]: the half-maximal inhibitory concentration (IC50) came out at 1.58 µM.

Take `COc1cc(-c2ccc3ncc(-c4ccc(OC)c(OC)c4)n3n2)ccc1O` [Compound 320, 4-[3-(3,4-dimethoxy-phenyl)imidazo [1,2-b]pyridazin-6-yl]-2-methoxy-phenol]: the IC50 came to 0.222 µM.

As to `COc1cc(-c2cc(-c3cc(C)c(O)c(C)c3)cnc2N)cc(OC)c1OC` [382_0087_0315, 4-[6-amino-5-(3,4,5-trimethoxyphenyl)-3-pyridyl]-2,6-dimethyl-phenol], the IC50 is 0.712 µM.

Take `COc1cncc(-c2ccc3ncc(-c4cccc(CO)c4)n3n2)c1` [Compound 344]: the IC50 came out at 2.14 µM.

Consider `O=C(NCCO)c1cccc(-c2cn3c(-c4ccc(O)cc4)cnc3cn2)c1` [388_0080_0192, N-(2-hydroxy-ethyl)-3-[3-(4-hydroxyphenyl)imidazo[1,2-a]pyrazin-6-yl]benzamide], for which the IC50 was 1.03 µM.

With `CS(=O)(=O)Nc1cccc(-c2ccc3ncc(-c4cccnc4)n3n2)c1` [Compound 381, N-[3-[3-(3-pyridyl)imidazo [1,2-b]pyridazin-6-yl]phenyl] methane-sulfonamide], the IC50 was found to be 1.41 µM.

`CNc1ccc2ncc(-c3ccc(OC)c(OC)c3)n2n1` [Compound 437_0079, 3-(3,4-dimethoxyphenyl)-N-methyl-imidazo[1,2-b]pyridazin-6-amine]: the IC50 amounted to 1.24 µM.

In the case of `O=C(NCCO)c1cccc(-c2cn3c(-c4ccc(Oc5ccccc5)cc4)cnc3cn2)c1` [Compound 217, N-(2-hydroxyethyl)-3-[3-(4-phenoxyphenyl)imidazo[1,2-a]pyrazin-6-yl]benzamide], the IC50 amounted to 1.48 µM.

Regarding `OCc1cccc(-c2ccc3ncc(-c4cccc(Cl)c4)n3n2)c1` [Compound 402, [3-[3-(3-chlorophenyl)imidazo[1,2-b]pyridazin-6-yl]phenyl] methanol], the IC50 turned out to be 9.82 µM.

Consider `COc1cc(-c2cc(-c3ccc(N)cc3)cnc2N)cc(OC)c1OC` [382_0087_0333, 5-(4-aminophenyl)-3-(3,4,5-trimethoxy-phenyl)pyridin-2-amine], for which the 50% inhibitory concentration (IC50) was determined as 0.971 µM.

Turning to `COCCNc1ccc2ncc(-c3ccsc3)n2n1` [229_0033_0074, N-(2-methoxy-ethyl)-3-(3-thienyl)imidazo [1,2-b]pyridazin-6-amine], the half-maximal inhibitory concentration (IC50) was 5.23 µM.

As for `CN(C)c1cccc(-c2cc(-c3cccc(C(=O)NCCO)c3)cnc2N)c1` [382_0135_0192, 3-[6-amino-5-[3-(dimethylamino)phenyl]-3-pyridyl]-N-(2-hydroxyethyl) benzamide], the IC50 is 3.57 µM.

Turning to `CCC(CO)Nc1ccc2ncc(-c3cccs3)n2n1` (stereo not shown) [229_0153_4147, 2-[[3-(2-thienyl)imidazo [1,2-b]pyridazin-6-yl]amino] butan-1-ol], the half-inhibitory concentration (IC50) amounted to 3.97 µM.

`c1cncc(-c2n[nH]c3nccc(-c4ccoc4)c23)c1` [Compound 518, 4-(3-furyl)-3-(3-pyridyl)-1H-pyrazolo[3,4-b]pyridine]: the concentration for half-maximal inhibition (IC50) stood at 14.3 µM.

Take `CCCNc1ccc2ncc(-c3cccc(OC)c3)n2n1` [229_0226_4140, 3-(3-methoxyphenyl)-N-propyl-imidazo[1,2-b]pyridazin-6-amine]: the IC50 is 2.22 µM.

As for `CCCNc1ccc2ncc(-c3cccc(O)c3)n2n1` [229_0226_0284, 3-[6-(propylamino)imidazo[1,2-b]pyridazin-3-yl]phenol], the IC50 came out at 0.93 µM.

As for `NC(=O)c1cccc(-c2ccc3ncc(-c4ccncc4)n3n2)c1` [Compound 313, 3-[3-(4-pyridyl)imidazo [1,2-b]pyridazin-6-yl]benzamide], the 50% inhibitory concentration (IC50) was 1.2 µM.

Turning to `OCc1ccc(-c2cn3c(-c4cccc(O)c4)cnc3cn2)cc1` [Compound 213, 3-[6-[4-(hydroxymethyl)phenyl]imidazo [1,2-a]pyrazin-3-yl]phenol], the concentration for half-maximal inhibition (IC50) was 3.36 µM.

Turning to `CNc1ccc2ncc(-c3ccc(OC)nc3)n2n1` [Compound 437_0311, 3-(6-methoxy-3-pyridyl)-N-methyl-imidazo[1,2-b]pyridazin-6-amine], the half-maximal inhibitory concentration (IC50) turned out to be 4.46 µM.

Still in this test, the particulars now being: secondary screen, re-synthesized and expanded compounds.
As for `COc1cc(-c2ccc3ncc(-c4cccc(NC(C)=O)c4)n3n2)ccc1O` [BF000726183, N-(3-[6-(4-hydroxy-3-methoxy-phenyl)-imidazo[1,2-b]pyridazin-3-yl]phenyl]-acatamide], the 50% inhibitory concentration (IC50) was 0.167 µM.

Consider `COc1cc(-c2cc(-c3ccc(N4CCNCC4)cc3)cnc2N)ccc1O` [BF000707279, 4-[2-amino-5-(4-piperazin-1-ylphenyl)-3-pyridyl]-2-methoxy-phenol], for which the IC50 worked out at 0.0609 µM.

As to `COc1cc(-c2cc(-c3ccc(C(N)=O)cc3)cnc2N)ccc1O` [BF000313038, 4-[6-amino-5-(4-hydroxy-3-methoxy-phenyl)-3-pyridyl]-benzamide], the IC50 is 0.214 µM.

As to `COc1ccc(-c2cnc3ccc(NC4CCOCC4)nn23)cc1OC` [BF000146153, 3-(3,4-dimethoxy-phenyl)-N-tetrahydro-pyran-4-yl-imidazo[1,2-b]pyridazin-6-amine], the IC50 is 0.48 µM.
